In the supplement of paper PMC10307832:

Assays:
Assay in all cases: relative viability (nuclei count vs DMSO), 5 days (fraction); higher = more cells survive
GSK126 + Dasatinib = compound: CC[C@H](C)N1C=C(C2=C(C=C(C=C21)C3=CN=C(C=C3)N4CCNCC4)C(=O)NCC5=C(C=C(NC5=O)C)C)C [GSK126] + Cc1nc(Nc2ncc(C(=O)Nc3c(C)cccc3Cl)s2)cc(N2CCN(CCO)CC2)n1 [Dasatinib] (partner 0.075 µM)
Method in brief: (§1)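 After 5 days of treatment, lung cancer cells in 1536-well plates were fixed and stained in a single step (final 0.05% Triton X-100, 1% formaldehyde, 1 ug/ml Hoechst) and their nuclei counted on 4× images. Treatment had been applied by pin tool the day after seeding as one drug alone or as a fixed anchor-drug dose with five library-drug doses (not always all listed) in √10 steps. Relative viability is the nuclei count of treated wells divided by that of vehicle wells, and values are medians of duplicate plates.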

MLN4924 + Decitabine = compound: NS(=O)(=O)OC[C@@H]1C[C@@H](n2ccc3c(N[C@H]4CCc5ccccc54)ncnc32)C[C@@H]1O [MLN4924] + Nc1ncn([C@H]2C[C@H](O)[C@@H](CO)O2)c(=O)n1 [Decitabine] (partner 2 µM)
Method in brief: as §1

MLN4924 + Vorinostat = compound: NS(=O)(=O)OC[C@@H]1C[C@@H](n2ccc3c(N[C@H]4CCc5ccccc54)ncnc32)C[C@@H]1O [MLN4924] + O=C(CCCCCCC(=O)Nc1ccccc1)NO [Vorinostat] (partner 1 µM)
Method in brief: as §1

MLN4924 + Alpelisib = compound: NS(=O)(=O)OC[C@@H]1C[C@@H](n2ccc3c(N[C@H]4CCc5ccccc54)ncnc32)C[C@@H]1O [MLN4924] + Cc1nc(NC(=O)N2CCC[C@H]2C(N)=O)sc1-c1ccnc(C(C)(C)C(F)(F)F)c1 [Alpelisib] (partner 2 µM)
Method in brief: as §1

UMC-11
relative viability (GSK126 + Dasatinib; first compound 0.08 µM): 0.512
relative viability (GSK126 + Dasatinib; first compound 0.253 µM): 0.475
relative viability (GSK126 + Dasatinib; first compound 0.8 µM): 0.443
relative viability (GSK126 + Dasatinib; first compound 2.53 µM): 0.417
relative viability (GSK126 + Dasatinib; first compound 8 µM): 0.437
relative viability (MLN4924 + Decitabine; first compound 0.04 µM): 0.559
relative viability (MLN4924 + Decitabine; first compound 0.1265 µM): 0.511
relative viability (MLN4924 + Decitabine; first compound 0.4 µM): 0.402
relative viability (MLN4924 + Decitabine; first compound 1.265 µM): 0.309
relative viability (MLN4924 + Decitabine; first compound 4 µM): 0.277
relative viability (MLN4924 + Vorinostat; first compound 0.04 µM): 0.173
relative viability (MLN4924 + Vorinostat; first compound 0.1265 µM): 0.169
relative viability (MLN4924 + Vorinostat; first compound 0.4 µM): 0.19
relative viability (MLN4924 + Vorinostat; first compound 1.265 µM): 0.144
relative viability (MLN4924 + Vorinostat; first compound 4 µM): 0.116
relative viability (MLN4924 + Alpelisib; first compound 0.04 µM): 0.59
relative viability (MLN4924 + Alpelisib; first compound 0.1265 µM): 0.249
relative viability (MLN4924 + Alpelisib; first compound 0.4 µM): 0.254
relative viability (MLN4924 + Alpelisib; first compound 1.265 µM): 0.128
relative viability (MLN4924 + Alpelisib; first compound 4 µM): 0.13
